Measurements as given in PubChem BioAssay (NCI).
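96-well plates; 48 h exposure; 5 concentrations. Endpoints by linear interpolation between flanking doses. Not reached: highest tested concentration assigned. GI50 = concentration required for 50% inhibition of growth. Definition used: TGI = concentration required for complete inhibition of growth.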

Experiments:
Assay in all cases: growth of human tumour cells (NCI), 48 h
HCT-15 colon = tested on: HCT-15 colon
SN12C renal = tested on: SN12C renal
SK-MEL-2 melanoma = tested on: SK-MEL-2 melanoma
SNB-78 CNS = tested on: SNB-78 CNS
MDA-MB-231 breast = tested on: MDA-MB-231 breast
SF-268 CNS = tested on: SF-268 CNS
MCF7 breast = tested on: MCF7 breast
SK-OV-3 ovarian = tested on: SK-OV-3 ovarian
LXFL 529 NSCLC = tested on: LXFL 529 NSCLC
UO-31 renal = tested on: UO-31 renal

| SMILES | TGI (HCT-15 colon) [µM] | TGI (SN12C renal) [µM] | TGI (SK-MEL-2 melanoma) [µM] | TGI (SNB-78 CNS) [µM] | TGI (MDA-MB-231 breast) [µM] | TGI (SF-268 CNS) [µM] | TGI (MCF7 breast) [µM] | TGI (SK-OV-3 ovarian) [µM] | TGI (LXFL 529 NSCLC) [µM] | TGI (UO-31 renal) [µM] | GI50 (HCT-15 colon) [µM] | GI50 (SN12C renal) [µM] | GI50 (SK-MEL-2 melanoma) [µM] | GI50 (MCF7 breast) [µM] | GI50 (UO-31 renal) [µM] |
| --- | --- | --- | --- | --- | --- | --- | --- | --- | --- | --- | --- | --- | --- | --- | --- |
| COc1ccc(C(=O)/C=C/c2ccc(OCC(=O)N3CCN(c4ccccc4)CC3)cc2)cc1 | > 100 | > 100 | > 100 | 54.8 | > 53.2 | > 100 | > 100 | 66 | > 100 | > 94.7 | – | – | – | – | – |
| O=C(NCCCCCCCCNC(=O)c1cccc2ccccc12)c1cccc2ccccc12 | > 100 | > 100 | > 100 | 48.3 | – | > 81.8 | > 100 | 41.6 | > 100 | 27.4 | – | – | – | – | – |
| Nc1nc(N)c2nc(CNc3ccc(C(=O)NC(CCCNC(=O)c4ccccc4C(=O)O)C(=O)O)cc3)cnc2n1 (stereo not drawn) | > 100 | > 100 | > 100 | > 100 | > 100 | > 100 | > 100 | – | > 100 | > 100 | 0.00105 | 0.00227 | > 100 | 0.00363 | 0.00532 |
| COC(=O)C(Cc1nc2ccc(Cl)cc2[nH]c1=O)/C(=N/NC(N)=O)C(=O)Nc1ccc(Cl)cc1 (stereo not drawn) | > 100 | > 100 | > 100 | > 100 | – | > 100 | – | > 100 | > 100 | > 100 | – | – | – | – | – |
| COc1cc(-c2cc(=O)c3cc(C)c(C)c(C(=O)O)c3o2)cc(OC)c1OC | > 100 | > 100 | > 100 | > 100 | – | > 100 | – | > 100 | > 100 | > 100 | – | – | – | – | – |
| Cn1c2cc(O)cc(O)c2c(=O)c2c([N+](=O)[O-])cccc21 | > 100 | > 100 | > 100 | > 100 | – | > 100 | – | > 100 | > 100 | > 100 | – | – | – | – | – |
| O=C(NO)C(=O)Nc1ccc(Cl)cc1[N+](=O)[O-] | > 100 | > 100 | > 100 | > 100 | – | > 100 | – | > 100 | > 100 | > 100 | – | – | – | – | – |
| COC(OC)[C@@H](C)[C@H](O)[C@](C)(O)C1OC(C)(C)OC(C(C)C=C(C)C)C1C (stereo partly drawn) | > 100 | > 100 | > 100 | > 100 | – | > 100 | – | > 100 | > 100 | > 100 | – | – | – | – | – |
